The text below walks through data of PubChem BioAssay (NCI).

Assay in all cases: NCI anticancer screen, dose series, 48 h
For assay [1], the system named is A549 NSCLC.
Assay [2] has as its system SNB-75 CNS.
Assay [3] relates to ACHN renal.
In assay [4] the test system is SK-MEL-2 melanoma.
Assay [5] deals with SN12C renal.
Assay [6] concerns DU-145 prostate.
For assay [7], the system named is SF-539 CNS.
Assay [8] has as its system NCI-H23 lung.
Assay [9] concerns UACC-62 melanoma.
The test system of assay [10] is KM12 colon.

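Each compound was tested at five concentrations against cells in 96-well plates for 48 hours. The concentration for 50% growth inhibition is given as GI50. At the TGI there is no net growth.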

Regarding `O=C1/C(=C/c2cccc(Cl)c2Cl)N=C(c2ccccc2)N1C1CC1`, the GI50 in [1] was 19.7 µM; in [2], 6.06 µM; in assay [3], 16.7 µM; in [4] it was 18.5 µM; in assay [5], 8.62 µM; in assay [6], 12.1 µM. Moreover, the GI50 in assay [7] is 10.3 µM; in [8], 9.35 µM; in [9], 9.2 µM; in [10] it was 11.9 µM. Also, the TGI is > 50 µM in [1]; 15.9 µM in assay [2]; > 50 µM in assay [3]; > 50 µM in [4]; 17.5 µM in assay [5]; 29.4 µM in [6]. In addition, the TGI in assay [7] was 22.3 µM; in assay [8], 19.5 µM; in assay [9] it was 19.5 µM; in assay [10] it was 34.4 µM.
Take `Cc1c2c(C#N)nccc2c(C)c2c1c1ccccc1n2Cc1ccccc1`: the TGI in assay [1], in assay [2], in [3], in assay [4], in [5] and in assay [6] was > 100 µM throughout. In addition, the TGI in assay [7], in [8], in [9] and in [10] was > 100 µM throughout.
Consider `O=C(CSc1nc2ccccc2nc1-c1ccccc1)Nc1ccc(F)cc1`, for which the GI50 in assay [1] is 49.3 µM; in assay [2] it was 21.6 µM; in [3], 41.9 µM; in assay [4], 73.5 µM; in assay [5] it was 36.5 µM; in [6], 51 µM. Moreover, the GI50 is 18.6 µM in [7], 69.7 µM in assay [8], 48.5 µM in assay [9] and 44.8 µM in assay [10]. Also, the TGI in assay [1] was > 100 µM; in assay [2], 80.8 µM; in assay [3], > 100 µM; in assay [4], > 100 µM; in assay [5], > 100 µM; in assay [6] it was > 100 µM. Also, the TGI in [7] is 35.4 µM; in assay [8] it was > 100 µM; in assay [9], > 100 µM; in [10], > 100 µM.
As for `Cc1ncc(C(=O)Nc2ccc(CN3CCN(C)CC3)c(C(F)(F)F)c2)cc1C#Cc1cnc(N)c2ccncc12`, the GI50 was 1.78 µM in assay [1]; 0.854 µM in assay [2]; 0.303 µM in assay [3]; 1.72 µM in assay [4]; 0.616 µM in assay [5]; 1.1 µM in [6]. For the same compound, the GI50 in assay [7] is 0.548 µM; in [8] it was 1.34 µM; in assay [9], 1.4 µM; in assay [10], 0.441 µM. Also, the TGI in [1] turned out to be 4.24 µM; in assay [2], 2.21 µM; in [3], 1.5 µM; in assay [4] it was 3.65 µM; in [5] it was 3.77 µM; in assay [6], 3.27 µM. The TGI in assay [7] was determined as 1.79 µM; in assay [8], 3.35 µM; in [9] it was 2.9 µM; in [10], 1.82 µM.
For `COc1cc2c(c(OC)c1OC)-c1ccc(SC)c(=O)cc1C(NC=O)CC2` (stereo not given), the TGI in assay [1] was > 83.4 µM; in assay [2], > 21.5 µM; in [3], > 100 µM; in assay [4], > 94.7 µM; in assay [5], > 89.5 µM; in assay [6], < 0.01 µM. In addition, the TGI was < 0.0464 µM in [7], 50 µM in [8], > 100 µM in [9] and < 0.0138 µM in [10].
As to `C#C[C@]1(O)CCC2C3CCc4cc(O)ccc4C3CC[C@@]21C` (stereo not given in full), the GI50 in [1] was 5.81 µM; in [2], 1.93 µM; in assay [3], 9.42 µM; in assay [4], 5.81 µM; in assay [5], 6.41 µM; in assay [6], 6.71 µM. For the same compound, the GI50 in assay [7] was 4 µM; in assay [8], 4.7 µM; in [9], 4.12 µM; in [10], 3.14 µM. Besides, the TGI in assay [1] is > 100 µM; in assay [2] it was 6.76 µM; in assay [3] it was 85.1 µM; in assay [4], 26.8 µM; in assay [5], 37.6 µM; in [6], 23.5 µM. Also, the TGI in assay [7] turned out to be 14.7 µM; in assay [8] it was 25.7 µM; in [9] it was 22.8 µM; in assay [10] it was 13.9 µM.
For `CCOC(=O)C(Cc1ccc(CCCC(=O)NCCC(=O)Nc2ccc3nc(C)sc3c2)cc1)C(=O)OCC`, the GI50 in assay [1] is 59.1 µM; in [2], > 52.1 µM; in [3] it was 18.2 µM; in [4], 33 µM; in assay [5], 31.4 µM; in assay [6] it was 51.1 µM. Also, the GI50 in assay [7] is 42.5 µM; in assay [8], 28.9 µM; in assay [9] it was 26.2 µM; in [10], 33.4 µM. In addition, the TGI is > 100 µM in assay [1]; > 100 µM in [2]; 34.3 µM in assay [3]; > 62 µM in assay [4]; > 100 µM in [5]; > 100 µM in assay [6]. The TGI is > 82.6 µM in [7], > 93.7 µM in [8], > 69.5 µM in assay [9] and > 100 µM in assay [10].
`CNCC#Cc1c(F)ccc2c1/C(=C/c1[nH]ccc1OC)C(=O)N2`: the GI50 in assay [1] is 0.129 µM; in assay [2] it was 0.0786 µM; in [3], 0.053 µM; in assay [4], 0.0799 µM; in [5], 0.118 µM; in assay [6], 0.136 µM. In addition, the GI50 in assay [7] was 0.243 µM; in assay [8] it was 0.283 µM; in assay [9], 0.249 µM; in [10], 0.0565 µM. In addition, the TGI in assay [1] was 2.71 µM; in [2], 1.81 µM; in assay [3] it was 2.64 µM; in assay [4], 0.369 µM; in [5], 2.86 µM; in [6], 2.92 µM. Besides, the TGI stood at 0.853 µM in assay [7], 1.26 µM in assay [8], 0.815 µM in assay [9] and 2.41 µM in assay [10].
Regarding `O=C(CC1(O)C(=O)N(Cc2ccccc2)c2ccc(F)cc21)c1ccc(C(=O)NCC2CCC3(CC2)OOC2(CCCCC2)OO3)cc1` (stereo not given), the GI50 in assay [1] was 0.207 µM; in assay [2] it was 1.48 µM; in assay [3] it was 0.179 µM; in assay [4], 2 µM; in assay [5], 1.73 µM; in assay [6], 0.187 µM. For the same compound, the GI50 was 0.21 µM in [7], 0.246 µM in assay [8], 2.18 µM in [9] and 0.338 µM in [10]. The TGI in assay [1] turned out to be 0.441 µM; in [2] it was 3.19 µM; in assay [3] it was 0.363 µM; in assay [4], 4.13 µM; in [5] it was 3.74 µM; in assay [6], 0.335 µM. Further, the TGI in [7] came out at 0.541 µM; in assay [8], 0.634 µM; in [9], 5.61 µM; in assay [10] it was 1.19 µM.
`C=C(C)[C@@H]1CC[C@]2(C)[C@H](CC=C3[C@@H]4CC(C)(C)CC[C@]4(C(N)=O)CC[C@]32C)[C@@]1(C)CCC#N`: the GI50 in [1] was 4.1 µM; in assay [2] it was 2.33 µM; in [3], 3.01 µM; in [4] it was 5.28 µM; in assay [5] it was 1.84 µM; in [6], 4.8 µM. Moreover, the GI50 in assay [7] is 3.04 µM; in assay [8] it was 3.66 µM; in [9], 2.59 µM; in assay [10], 3.1 µM. The TGI in assay [1] was > 100 µM; in assay [2] it was 9.71 µM; in assay [3], 51.2 µM; in assay [4] it was > 100 µM; in assay [5], 3.7 µM; in assay [6] it was > 100 µM. Also, the TGI in assay [7] was 13.6 µM; in assay [8] it was > 100 µM; in assay [9], 9.15 µM; in assay [10], 14.8 µM.
`CCOC(=O)Nc1ccc(C)c(NC(=O)OCC)c1`: the TGI in assay [1], in [2], in assay [3], in [4], in [5] and in assay [6] was > 100 µM each time. The TGI in assay [7], in assay [8], in [9] and in [10] was > 100 µM throughout.
`CS(=O)(=O)CCNCc1nc(-c2ccc3ncnc(Nc4ccc(OCc5cccc(C(F)(F)F)c5)cc4)c3c2)cs1`: the GI50 was > 22 µM in [1]; 4.86 µM in assay [2]; > 21.9 µM in assay [3]; 8.7 µM in assay [4]; > 25 µM in [5]; > 17.7 µM in assay [6]. Also, the GI50 was > 25 µM in assay [7], 12.5 µM in assay [8], > 25 µM in assay [9] and > 25 µM in assay [10]. Further, the TGI in assay [1] is > 25 µM; in [2] it was 15.7 µM; in assay [3], > 25 µM; in [4], > 22.1 µM; in assay [5], > 25 µM; in assay [6], > 25 µM. Further, the TGI in assay [7], in [8], in [9] and in assay [10] was > 25 µM in each case.
For `COc1cc(F)ccc1-c1ncnc(Nc2cccc(CS(C)(=N)=O)c2)n1` (stereo not given), the GI50 in [1] is 2.83 µM; in [2] it was 0.434 µM; in [3] it was 0.476 µM; in assay [4], 1.08 µM; in assay [5], 0.645 µM; in assay [6], 0.784 µM. Besides, the GI50 in assay [7] is 0.385 µM; in assay [8], 0.679 µM; in [9], 0.361 µM; in assay [10], 0.561 µM. The TGI was > 100 µM in assay [1]; 3.46 µM in assay [2]; > 100 µM in assay [3]; 3.47 µM in assay [4]; > 100 µM in assay [5]; > 100 µM in [6]. Besides, the TGI was 2.94 µM in [7], 7.14 µM in assay [8], 3.4 µM in [9] and > 100 µM in assay [10].
As to `O=C(Nc1ccncc1)C(=O)c1cn(S(=O)(=O)c2ccc(F)cc2)c2ccccc12`, the GI50 was 18.5 µM in assay [1]; 2.76 µM in [2]; 5.76 µM in assay [3]; 4.74 µM in assay [4]; 6.58 µM in assay [5]; 3.37 µM in assay [6]. Also, the GI50 in assay [7] is 2.1 µM; in assay [8] it was 2.54 µM; in assay [9], 3.4 µM; in assay [10], 1.49 µM. The TGI was > 100 µM in assay [1]; 15.7 µM in assay [2]; > 100 µM in assay [3]; 52.9 µM in assay [4]; > 100 µM in assay [5]; 20.4 µM in assay [6]. For the same compound, the TGI in assay [7] is 53.7 µM; in [8], > 100 µM; in assay [9] it was > 100 µM; in assay [10], > 100 µM.
Consider `Cc1nn(-c2ccc(Cl)cc2)c2nc3c(nc12)C(=O)c1ccccc1-3`, for which the GI50 in [1] is > 100 µM; in assay [2], 10.9 µM; in [3] it was > 100 µM; in [4], > 100 µM; in assay [5] it was > 100 µM; in assay [6], > 100 µM. For the same compound, the GI50 in [7], in assay [8], in assay [9] and in assay [10] was > 100 µM throughout. Besides, the TGI is > 100 µM in assay [1]; 46.3 µM in assay [2]; > 100 µM in assay [3]; > 100 µM in assay [4]; > 100 µM in assay [5]; > 100 µM in assay [6]. The TGI in assay [7], in [8], in assay [9] and in [10] was > 100 µM throughout.
As for `CCSc1ncnc2c1ncn2C1OC(CO)C(O)C1O` (stereo not given), the GI50 was 0.777 µM in assay [1]; > 34.1 µM in assay [2]; 0.425 µM in [3]; 24.1 µM in [4]; 0.449 µM in assay [5]; 0.129 µM in assay [6]. For the same compound, the GI50 was 0.437 µM in [7], 0.434 µM in [8], 1.48 µM in [9] and 0.702 µM in assay [10]. In addition, the TGI in [1] was > 60.2 µM; in assay [2], > 100 µM; in assay [3], > 100 µM; in assay [4], > 100 µM; in assay [5] it was > 100 µM; in assay [6] it was 32.5 µM. For the same compound, the TGI in assay [7], in assay [8], in assay [9] and in assay [10] was > 100 µM throughout.
